Here are results for 23 molecules from patent publication US6500841B1, “Inhibitors of farnesyl-protein transferase” (Merck & Co., Inc., priority 1994, dated 2002).

Assay [1] concerns the target Farnesyl-protein transferase (FTase) (UniProt P49354+P49356). The assay is described as follows: In vitro inhibition of Ras farnesyl transferase. In kind it is biochemical. To be noted: Ras-CVLS at 3.5 μM, 0.25 μM [3H]FPP; partially purified bovine or recombinant human enzyme; concentration giving 50% inhibition of FTase; read-out: Inhibition of RAS farnesylation, IC50. The procedure:
Farnesyl-protein transferase (FTase) from bovine brain was chromatographed on DEAE-Sephacel (Pharmacia, 0-0.8 M NaCl gradient elution), N-octyl agarose (Sigma, 0-0.6 M NaCl gradient elution), and a mono Q HPLC column (Pharmacia, 0-0.3 M NaCl gradient). Ras-CVLS at 3.5 μM, 0.25 μM [^3H]FPP, and the indicated compounds were incubated with either a partially purified bovine enzyme preparation or a recombinant human enzyme preparation. The recombinant human enzyme was prepared as described in Omer, C. A., Kral, A. M., Diehl, R. E., Prendergast, G. C., Powers, S., Allen, C. M., Gibbs, J. B. and Kohl, N. E. (1993) Biochemistry 32:5167-5176. The Frase data presented below in Table 1 reflects the ability of the test compound to inhibit RAS farnesylation in vitro, as described in Pompliano, et al., Biochemistry 31, 3800 (1992).

Assay [2] has as its system Ras farnesylation in the v-ras cell line (viral Ha-ras p21). The assay is described as follows: cells. It counts as cell-based. To be noted: v-ras cell line expressing viral Ha-ras p21; <1 = >50% inhibition at a 1 μM concentration. The protocol: The cell line used in this assay was the v-ras line, which expressed viral Ha-ras p21. The assay was performed essentially as described in DeClue, J. E. et. al., Cancer Research 51, 712-717, (1991). Cells in 10 cm dishes at 50-75% confluency were treated with the test compound (final concentration of solvent, methanol or dimethyl sulfoxide, was 0.1%). After 4 hours at 37° C., the cells were labelled in 3 ml methionine-free DMEM supplemeted with 10% regular DMEM, 2% fetal bovine serum and 400 μCi[^35S]methionine (1000 Ci/mmol). After an additional 20 hours, the cells were lysed in 1 ml lysis buffer (1% NP40/20 mM HEPES, pH 7.5/5 mM MgCl2/1 mM DTT/10 μg/ml aprotinen/2 μg/ml leupeptin/2 μg/ml antipain/0.5 mM PMSF) and the lysates cleared by centrifugation at 100,000×g for 45 min. Aliquots of lysates containing equal numbers of acid-precipitable counts were brought to 1 ml with IP buffer (lysis buffer lacking DTF) and immunoprecipitated with the ras-specific monoclonal antibody Y13-259 (Furth, M. E. et. al., J. Virol. 43, 294-304, (1982)). Following a 2 hour antibody incubation at 4° C., 200 μl of a 25% suspension of protein A-Sepharose coated with rabbit anti rat IgG was added for 45 min. The immunoprecipitates were washed four times with IP buffer ([…], pH 7.5/1 mM EDTA/1% Triton X-100.0.5% deoxycholate/0.1%/SDS/0.1 M NaCl) boiled in SDS-PAGE sample buffer and loaded on 13% acrylamide gels. When the dye front reached the bottom, the gel was fixed, soaked in Enlightening, dried and autoradiographed. The intensities of the bands corresponding to farnesylated and nonfarnesylated ras proteins were compared to determine the percent inhibition of farnesyl transfer to protein.

Bounds are passed on as bounds.

By IC50 is commonly meant the concentration that inhibits the measured activity by half. Regarding `CCC(C)[C@@H](CN1Cc2ccccc2C[C@H]1C(=O)N[C@@H](CCSC)C(=O)OC)NC[C@@H](N)CS` (stereo partly drawn) [Compound 1, N-[N′-[2(S)-(2(R)-amino-3-mercaptopropylamino)-3(S)-methylpentyl]-1,2,3,4-tetrahydro-3(S)-isoquinolinecarboxyl]-methionine methyl ester], the IC50 in assay [1] turned out to be 0.68 µM; in assay [2] it was 0.25 µM. With `CCC(C)[C@@H](CN1Cc2ccccc2C[C@H]1C(=O)N[C@@H](CCSC)C(=O)O)NC[C@@H](N)CS` (stereo partly drawn) [Compound 2, N-[N′-[2(S)-(2(R)-amino-3-mercaptopropylamino)-3(S)-methylpentyl]-1,2,3,4-tetrahydro-3(S)-isoquinolinecarboxyl]-methionine], in assay [1], the IC50 stood at 0.00039 µM.

As to `CC[C@H](C)[C@@H](CN1CCC[C@H]1C(=O)N[C@@H](CCSC)C(=O)OC)NC[C@@H](N)CS` [Compound 3, N-[2(S)-(2(R)-amino-3-mercaptopropylamino)-3(S)-methylpentyl]-prolyl-methionine methyl ester], the IC50 worked out at 0.1 µM in assay [1] and 0.25 µM in assay [2]. The like results for `CC[C@H](C)[C@@H](CN1CCC[C@H]1C(=O)N[C@@H](CCSC)C(=O)O)NC[C@@H](N)CS` [Compound 4, N-[2(S)-(2(R)-amino-3-mercaptopropylamino)-3(S)-methylpentyl]-prolyl-methionine] were, in that order, 0.017 µM and 10 µM. On the same counts, the results for `CC[C@H]1CCN(C[C@@H](NC[C@@H](N)CS)[C@@H](C)CC)[C@@H]1C(=O)N[C@@H](CCSC)C(=O)OC` [Compound 5, N-[2(S)-(2(R)-amino-3-mercaptopropylamino)-3(S)-methylpentyl]-trans-3-ethyl-prolyl-methionine methyl ester] are 0.52 µM and below 1 µM. For the molecule `CC[C@H]1CCN(C[C@@H](NC[C@@H](N)CS)[C@@H](C)CC)[C@@H]1C(=O)N[C@@H](CCSC)C(=O)O` [Compound 6, N-[2(S)-(2(R)-amino-3-mercaptopropylamino)-3(S)-methylpentyl]-trans-3-ethyl-prolyl-methionine], the IC50 in assay [1] was found to be 0.01 µM. For the molecule `CC[C@@H]1CCN(C[C@@H](NC[C@@H](N)CS)[C@@H](C)CC)[C@@H]1C(=O)N[C@@H](CCSC)C(=O)OC` [Compound 7, N-[2(S)-(2(R)-amino-3-mercaptopropylamino)-3(S)-methylpentyl]-cis-3-ethyl-prolyl-methionine methyl ester], the half-inhibitory concentration (IC50) in assay [1] turned out to be 2.3 µM; in assay [2] it was 1 µM. Take `CC[C@@H]1CCN(C[C@@H](NC[C@@H](N)CS)[C@@H](C)CC)[C@@H]1C(=O)N[C@@H](CCSC)C(=O)O` [Compound 8, N-[2(S)-(2(R)-amino-3-mercaptopropylamino)-3(S)-methylpentyl]-cis-3-ethyl-prolyl-methionine]: the IC50 in assay [1] came to 0.0042 µM. `CC[C@H](C)[C@@H](CN1CCC[C@H]1C(=O)N[C@@H](CCS(C)(=O)=O)C(=O)OC)NC[C@@H](N)CS` [Compound 9, N-[2(S)-(2(R)-amino-3-mercaptopropylamino)-3(S)-methylpentyl]-prolyl-methionine sulfone methyl ester]: the IC50 in assay [1] is 0.95 µM; in assay [2], above 10 µM. Take `CCC(C)C(CN1CCCC1C(=O)NC(CCS(C)(=O)=O)C(=O)O)NCC(N)CS` [Compound 10, N-[2(S)-(2(R)-amino-3-mercaptopropylamino)-3(S)-methylpentyl]-prolyl-methionine sulfone]: the IC50 in assay [1] was 0.035 µM.

For the molecule `CCC(C)[C@@H](CN1Cc2ccccc2C[C@H]1C(=O)N[C@H]1CCOC1=O)NC[C@@H](N)CS` (stereo partly drawn) [Compound 13, N-[N′-[2(S)-(2(R)-amino-3-mercaptopropylamino)-3(S)-methylpentyl]-1,2,3,4-tetrahydro-3(S)-isoquinolinecarboxyl]-homoserine lactone], the IC50 in assay [1] was 0.39 µM; in assay [2] it was above 10 µM. As for `CCC(C)[C@@H](CN1Cc2ccccc2C[C@H]1C(=O)N[C@@H](CCO)C(=O)O)NC[C@@H](N)CS` (stereo partly drawn) [Compound 14, N-[N′-[2(S)-(2(R)-amino-3-mercaptopropylamino)-3(S)-methylpentyl]-1,2,3,4-tetrahydro-3(S)-isoquinolinecarboxyl]-homoserine], in assay [1], the IC50 worked out at 0.0076 µM. `CCC(C)C(CN1CCCC1C(=O)NC1CCOC1=O)NCC(N)CS` [Compound 15, N-[2(S)-(2(R)-amino-3-mercaptopropylamino)-3(S)-methylpentyl]-prolyl-homoserine lactone]: the IC50 in assay [1] is 1.4 µM; in assay [2], 50 µM. As to `CC[C@H](C)[C@@H](CN1CCC[C@H]1C(=O)N[C@@H](CCO)C(=O)O)NC[C@@H](N)CS` [Compound 16, N-[2(S)-(2(R)-amino-3-mercaptopropylamino)-3(S)-methylpentyl]-prolyl-homoserine], the IC50 in assay [1] was 0.045 µM. On the same count and under the same terms, then `CCC(C)C(CN1CCCCC1C(=O)NC1CCOC1=O)NCC(N)CS` [Compound 17, N-[2(S)-(2(R)-amino-3-mercaptopropylamino)-3-methylpentyl]-2(S)-pipecolyl-homoserine lactone], with 24 µM; and `CCC(C)C(NCC(N)CS)C(=O)N1CCCC1C(=O)NC1CCOC1=O` [Compound 19, N-[2(R)-amino-3-mercaptopropyl]-isoleucyl-prolyl-homserine lactone], with 10 µM; and `CCC(C)C(NCC(N)CS)C(=O)N1CCCC1C(=O)NC(CCO)C(=O)O` [Compound 20, N-[2(R)-amino-3-mercaptopropyl]-isoleucyl-prolyl-homserine], with 0.35 µM. The same measure, in the same setting: for `CCC(C)C(NCC(N)CS)C(=O)N1CCCCC1C(=O)NC1CCOC1=O` [Compound 21, N-[2(R)-amino-3-mercaptopropyl]-isoleucyl-2(S)-pipecolyl-homserine lactone] the value was 25 µM; for `CCC(C)C(NCC(N)CS)C(=O)N1CCCCC1C(=O)NC(CCO)C(=O)O` [Compound 22, N-[2(R)-amino-3-mercaptopropyl]-isoleucyl-2(S)-pipecolyl-homserine], 0.34 µM. As to `CCC(C)C(CN1CCCC1C(=O)NC(CCSC)C(=O)OC)N(C)CC(N)CS` [Compound 23, N-[2(S)-(2(R)-amino-3-(mercaptopropyl)methylamino)-3(S)-methylpentyl]-prolyl-methionine methyl ester], the IC50 in assay [1] is 1.2 µM; in assay [2], below 1 µM. As for `CCC(C)C(CN1CCCC1C(=O)NC(CCSC)C(=O)O)N(C)CC(N)CS` [Compound 24, N-[2(S)-(2(R)-amino-3-(mercaptopropyl)methylamino)-3(S)-methylpentyl]-prolyl-methionine], the IC50 in assay [1] came out at 0.006 µM. Take `CCC(C)C(CN1CCCC1C(=O)NC(CCS(C)(=O)=O)C(=O)OC)N(C)CC(N)CS` [Compound 25, N-[2(S)-(2(R)-amino-3-(mercaptopropyl)methylamino)-3(S)-methylpentyl]-prolyl-methionine sulfone methyl ester]: the IC50 in assay [1] amounted to 10 µM. The same measure, in the same setting: for `CCC(C)C(CN1CCCC1C(=O)NC(CCS(C)(=O)=O)C(=O)O)N(C)CC(N)CS` [Compound 26, N-[2(S)-(2(R)-amino-3-(mercaptopropyl)methylamino)-3(S)-methylpentyl]-prolyl-methionine sulfone] the value was 0.056 µM.
